Data from patent publication US8618153B2, “Hepatitis C virus inhibitors” (Bristol-Myers Squibb Company, priority 2009, dated 2013).

System: HCV 1b genotype
Assay: HCV Replicon assay (HCV-neo replicon cells), 1b genotype
Format: cell-based
Conditions: Hepatitis C virus; HCV 1b genotype replicon; numeric value; read-out: 1b EC50 (in μM or range)
Experimental: An HCV Replicon assay was utilized in the present disclosure, and was prepared, conducted and validated as described in commonly owned PCT/US2006/022197 and in O'Boyle et al., Antimicrob. Agents Chemother., 49(4):1346-1353 (April 2005). Assay methods incorporating luciferase reporters have also been used as described (Apath.com).
HCV-neo replicon cells and replicon cells containing mutations in the NS5A region were used to test the currently described family of compounds. The compounds were determined to have more than 10-fold less inhibitory activity on cells containing mutations than wild-type cells. Thus, the compounds of the present disclosure can be effective in inhibiting the function of the HCV NS5A protein and are understood to be as effective in combinations as previously described in application PCT/US2006/022197 and commonly owned WO 04/014852. Further, the compounds of the present disclosure can be effective against the HCV 1b genotype. It should also be understood that the compounds of the present disclosure can inhibit multiple genotypes of HCV. […] In one embodiment compounds of the present disclosure are inhibitory versus 1a, 1b, 2a, 2b, 3a, 4a, and 5a genotypes. […] The compounds of the present disclosure may inhibit HCV by mechanisms in addition to or other than NS5A inhibition. In one embodiment the compounds of the present disclosure inhibit HCV replicon and in another embodiment the compounds of the present disclosure inhibit NS5A.

SMILES	EC50 [µM]
C[C@H](NC(=O)[C@@H](c1ccccc1)N(C)C)c1ncc(-c2cccc(-c3cnc(-c4c[nH]c([C@@H]5CCCN5C(=O)[C@@H](c5ccccc5)N(C)C)n4)o3)c2)[nH]1 [Example 24, (2R)-2-(Dimethylamino)-N-((1S)-1-(4-(3-(2-(2-((2S)-1-((2R)-2-(dimethylamino)-2-phenylacetyl)-2-pyrrolidinyl)-1H-imidazol-4-yl)-1,3-oxazol-5-yl)phenyl)-1H-imidazol-2-yl)ethyl)-2-phenylacetamide]	0.00181
COC(=O)N[C@@H](C(=O)N1CCC[C@H]1c1ncc(-c2ccc(-c3cnc(-c4c[nH]c([C@@H]5CCCN5C(=O)OCc5ccccc5)n4)o3)cc2)[nH]1)c1ccccc1 [Example 27, Benzyl (2S)-2-(4-(5-(4-(2-((2S)-1-((2R)-2-((methoxycarbonyl)amino)-2-phenylacetyl)-2-pyrrolidinyl)-1H-imidazol-4-yl)phenyl)-1,3-oxazol-2-yl)-1H-imidazol-2-yl)-1-pyrrolidinecarboxylate]	0.00671
CCN(CC)[C@@H](C(=O)N1CCC[C@H]1c1nc(/C=C/c2ccc(/C=C/c3cnc([C@@H]4CCCN4C(=O)[C@@H](c4ccccc4)N(CC)CC)[nH]3)cc2)c[nH]1)c1ccccc1 [Example 35, (1R)-2-((2S)-2-(4-((E)-2-(4-((E)-2-(2-((2S)-1-((2R)-2-(diethylamino)-2-phenylacetyl)-2-pyrrolidinyl)-1H-imidazol-5-yl)vinyl)phenyl)vinyl)-1H-imidazol-2-yl)-1-pyrrolidinyl)-N,N-diethyl-2-oxo-1-phenylethanamine]	0.00014

Same assay, conditions: Hepatitis C virus; HCV 1b genotype replicon; value given as range class; read-out: 1b EC50 (in μM or range)

SMILES	EC50 [µM]
COC(=O)N[C@H](C(=O)N1CCC[C@H]1c1ncc(-c2cnc(-c3ncc(-c4cnc([C@@H]5CCCN5C(=O)[C@@H](NC(=O)OC)[C@@H](C)OC)[nH]4)s3)s2)[nH]1)[C@@H](C)OC [Example 19, Methyl ((1S,2R)-2-methoxy-1-(((2S)-2-(4-(5′-(2-((2S)-1-(N-(methoxycarbonyl)-O-methyl-L-threonyl)-2-pyrrolidinyl)-1H-imidazol-4-yl)-2,2′-bi-1,3-thiazol-5-yl)-1H-imidazol-2-yl)-1-pyrrolidinyl)carbonyl)propyl)carbamate]	0.001 to 0.01
COC(=O)N[C@@H](C)C(=O)N1CCC[C@H]1c1ncc(-c2cnc(-c3ncc(-c4cnc([C@@H]5CCCN5C(=O)[C@H](C)NC(=O)OC)[nH]4)s3)s2)[nH]1 [Example 20, Methyl ((1S)-2-((2S)-2-(4-(5′-(2-((2S)-1-(N-(methoxycarbonyl)-L-alanyl)-2-pyrrolidinyl)-1H-imidazol-4-yl)-2,2′-bi-1,3-thiazol-5-yl)-1H-imidazol-2-yl)-1-pyrrolidinyl)-1-methyl-2-oxoethyl)carbamate]	0.001 to 0.01
COC(=O)N[C@@H](C(=O)N1CCC[C@H]1c1nc(-c2ncc(-c3cccc(-c4cnc([C@@H]5CCCN5C(=O)[C@H](NC(=O)OC)c5ccccc5)[nH]4)c3)o2)c[nH]1)c1ccccc1 [Example 21, Methyl ((1R)-2-((2S)-2-(4-(3-(2-(2-((2S)-1-((2R)-2-((methoxycarbonyl)amino)-2-phenylacetyl)-2-pyrrolidinyl)-1H-imidazol-4-yl)-1,3-oxazol-5-yl)phenyl)-1H-imidazol-2-yl)-1-pyrrolidinyl)-2-oxo-1-phenylethyl)carbamate]	< 0.001
CN(C)[C@@H](C(=O)N1CCC[C@H]1c1nc(-c2ncc(-c3cccc(-c4cnc([C@@H]5CCCN5C(=O)[C@@H](c5ccccc5)N(C)C)[nH]4)c3)o2)c[nH]1)c1ccccc1 [Example 22, (1R)-2-((2S)-2-(4-(3-(2-(2-((2S)-1-((2R)-2-(Dimethylamino)-2-phenylacetyl)-2-pyrrolidinyl)-1H-imidazol-4-yl)-1,3-oxazol-5-yl)phenyl)-1H-imidazol-2-yl)-1-pyrrolidinyl)-N,N-dimethyl-2-oxo-1-phenylethanamine]	0.001 to 0.01
COC(=O)N[C@@H](C(=O)N[C@@H](C)c1ncc(-c2cccc(-c3cnc(-c4c[nH]c([C@@H]5CCCN5C(=O)[C@H](NC(=O)OC)c5ccccc5)n4)o3)c2)[nH]1)c1ccccc1 [Example 23, Methyl ((1R)-2-((2S)-2-(4-(5-(3-(2-((1S)-1-(((2R)-2-((methoxycarbonyl)amino)-2-phenylacetyl)amino)ethyl)-1H-imidazol-4-yl)phenyl)-1,3-oxazol-2-yl)-1H-imidazol-2-yl)-1-pyrrolidinyl)-2-oxo-1-phenylethyl) carbamate]	0.001 to 0.01
COC(=O)N[C@@H](C(=O)N1CCC[C@H]1c1nc(-c2ncc(-c3ccc(-c4cnc([C@@H]5CCCN5C(=O)[C@H](NC(=O)OC)c5ccccc5)[nH]4)cc3)o2)c[nH]1)c1ccccc1 [Example 25, Methyl ((1R)-2-((2S)-2-(4-(4-(2-(2-((2S)-1-((2R)-2-((methoxycarbonyl)amino)-2-phenylacetyl)-2-pyrrolidinyl)-1H-imidazol-4-yl)-1,3-oxazol-5-yl)phenyl)-1H-imidazol-2-yl)-1-pyrrolidinyl)-2-oxo-1-phenylethyl)carbamate]	0.001 to 0.01
CN(C)[C@@H](C(=O)N1CCC[C@H]1c1nc(-c2ncc(-c3ccc(-c4cnc([C@@H]5CCCN5C(=O)[C@@H](c5ccccc5)N(C)C)[nH]4)cc3)o2)c[nH]1)c1ccccc1 [Example 26, (1R)-2-((2S)-2-(4-(4-(2-(2-((2S)-1-((2R)-2-(Dimethylamino)-2-phenylacetyl)-2-pyrrolidinyl)-1H-imidazol-4-yl)-1,3-oxazol-5-yl)phenyl)-1H-imidazol-2-yl)-1-pyrrolidinyl)-N,N-dimethyl-2-oxo-1-phenylethanamine]	0.001 to 0.01
CN(C)[C@@H](C(=O)N1CCC[C@H]1c1ncc(-c2ccc(-c3cnc(-c4c[nH]c([C@@H]5CCCN5C(=O)OCc5ccccc5)n4)o3)cc2)[nH]1)c1ccccc1 [Example 28, Benzyl (2S)-2-(4-(5-(4-(2-((2S)-1-((2R)-2-((N,N-dimethyl)amino)-2-phenylacetyl)-2-pyrrolidinyl)-1H-imidazol-4-yl)phenyl)-1,3-oxazol-2-yl)-1H-imidazol-2-yl)-1-pyrrolidinecarboxylate]	0.001 to 0.01
COC(=O)N[C@@H](C(=O)N1CCC[C@H]1c1ncc(C#CC#Cc2cnc([C@@H]3CCCN3C(=O)[C@H](NC(=O)OC)c3ccccc3)[nH]2)[nH]1)c1ccccc1 [Example 29, Dimethyl (1R,1′R)-2,2′-((2S,2′S)-2,2′-(5,5′-(buta-1,3-diyne-1,4-diyl)bis(1H-imidazole-5,2-diyl))bis(pyrrolidine-2,1-diyl))bis(2-oxo-1-phenylethane-2,1-diyl)dicarbamate]	< 0.001
O=C([C@@H](c1ccccc1)N1CCCCC1)N1CCC[C@H]1c1ncc(C#CC#Cc2cnc([C@@H]3CCCN3C(=O)[C@@H](c3ccccc3)N3CCCCC3)[nH]2)[nH]1 [Example 30, (2R,2′R)-1,1′-((2S,2′S)-2,2′-(5,5′-(Buta-1,3-diyne-1,4-diyl)bis(1H-imidazole-5,2-diyl))bis(pyrrolidine-2,1-diyl))bis(2-phenyl-2-(piperidin-1-yl)ethanone)]	< 0.001
COC(=O)N[C@H](C(=O)N1CCC[C@H]1c1ncc(C#CC#Cc2cnc([C@@H]3CCCN3C(=O)[C@@H](NC(=O)OC)C(C)C)[nH]2)[nH]1)C(C)C [Example 31, Dimethyl (2S,2′S)-1,1′-((2S,2′S)-2,2′-(5,5′-(buta-1,3-diyne-1,4-diyl)bis(1H-imidazole-5,2-diyl))bis(pyrrolidine-2,1-diyl))bis(3-methyl-1-oxobutane-2,1-diyl)dicarbamate]	< 0.001
COC(=O)N[C@@H](C)C(=O)N1CCC[C@H]1c1ncc(C#CC#Cc2cnc([C@@H]3CCCN3C(=O)[C@H](C)NC(=O)OC)[nH]2)[nH]1 [Example 32, Dimethyl (2S,2′S)-1,1′-((2S,2′S)-2,2′-(5,5′-(buta-1,3-diyne-1,4-diyl)bis(1H-imidazole-5,2-diyl))bis(pyrrolidine-2,1-diyl))bis(1-oxopropane-2,1-diyl)dicarbamate]	0.01 to 10
COC(=O)N[C@H](C(=O)N1CCC[C@H]1c1ncc(C#Cc2ccc(-c3ccc(-c4cnc([C@@H]5CCCN5C(=O)[C@@H](NC(=O)OC)C(C)C)[nH]4)cc3)cc2)[nH]1)C(C)C [Example 33, Methyl ((1S)-1-(((2S)-2-(4-(4′-((2-((2S)-1-((2S)-2-((methoxycarbonyl)amino)-3-methylbutanoyl)-2-pyrrolidinyl)-1H-imidazol-4-yl)ethynyl)-4-biphenylyl)-1H-imidazol-2-yl)-1-pyrrolidinyl)carbonyl)-2-methylpropyl)carbamate]	< 0.001
COC(=O)N[C@H](C(=O)N1[C@@H]2C[C@@H]2C[C@H]1c1ncc(C#CC#Cc2cnc([C@@H]3C[C@H]4C[C@H]4N3C(=O)[C@@H](NC(=O)OC)C3CCOCC3)[nH]2)[nH]1)C1CCOCC1 [Example 34, Dimethyl (1,3-butadiyne-1,4-diylbis(1H-imidazole-4,2-diyl(1R,3S,5R)-2-azabicyclo[3.1.0]hexane-3,2-diyl((1S)-2-oxo-1-(tetrahydro-2H-pyran-4-yl)-2,1-ethanediyl)))biscarbamate]	0.001 to 0.01
COC(=O)N[C@@H](C(=O)N1CCC[C@H]1c1nc(/C=C/c2ccc(/C=C/c3cnc([C@@H]4CCCN4C(=O)[C@H](NC(=O)OC)c4ccccc4)[nH]3)cc2)c[nH]1)c1ccccc1 [Example 36, dimethyl (1,4-phenylenebis((E)-2,1-ethenediyl-1H-imidazole-4,2-diyl(2S)-2,1-pyrrolidinediyl((1R)-2-oxo-1-phenyl-2,1-ethanediyl)))biscarbamate]	< 0.001
